Assay results reported in patent US20190022225A1, “PROTOCOL FOR INCREASING LIFE EXPECTANCY IN A TEST SUBJECT” (Mayo Foundation for Medical Education and Research, priority 2015, published 2019).
“Also recorded” adds a separate entry of the source.

Tests used:
[1] = system: senescent cells in osteoarthritic joint of mice after ACL surgery; assay: Osteoarthritis mouse model (ACL surgery), intra-articular treatment; type: in vivo; conditions: for histopathology: destruction of the proteoglycan layer: Nutlin-3A in C57BL/6J, GCV 2.5 μg intra-articular in 3MR mice
Method: Parallel studies were performed. One study investigated the effect of eliminating senescent cells with ganciclovir (GCV) in 3MR mice. Mice underwent surgery to cut the anterior cruciate ligament of one rear limb to induce osteoarthritis in the joint of that limb. During week 2 post-surgery, 3MR mice received 2.5 μg GCV to the operated knee by intra-articular injection, qd for 5 days, with a 2nd treatment (2.5 μg GCV qd for 5 days) during week 4 post-surgery. At the end of 4 weeks post-surgery, operated joints of the mice were monitored for presence of senescent cells, assessed for function, monitored for markers of inflammation, and underwent histological assessment.
In a parallel study, C57BL/6J mice underwent surgery to cut the anterior cruciate ligament of one rear limb to induce osteoarthritis in the joint of that limb. During week 3 and week 4 post-surgery, the mice were treated with 5.8 μg of Nutlin-3A (n=7) per operated knee by intra-articular injection, qod for 2 weeks. At the end of 4 weeks post-surgery, joints of the mice were monitored for presence of senescent cells, assessed for function, monitored for markers of inflammation, and underwent histological assessment.
Two control groups of mice were included in the studies performed: one group comprising C57BL/6J or 3MR mice that had undergone a sham surgery (n=3) (i.e., surgical procedures followed except for cutting the ACL) and intra-articular injections of vehicle parallel to the GCV-treated group; and one group comprising C57BL/6J or 3MR mice that had undergone an ACL surgery and received intra-articular injections of vehicle (n=5) parallel to the GCV-treated group.
RNA from the operated joints of mice from the Nutlin-3A treated mice was analyzed for expression of SASP factors (mmp3, IL-6) and senescence markers (p16). qRT-PCR was performed to detect mRNA levels. […] RNA from the operated joints of mice was also analyzed for expression of type 2 collagen and compared with expression of actin as a control.
Function of the limbs was assessed 4 weeks post-surgery by a weight bearing test to determine which leg the mice favored (FIG. 39). The mice were allowed to acclimate to the chamber on at least 3 occasions prior to taking measurements. Mice were maneuvered inside the chamber to stand with 1 hind paw on each scale. The weight that was placed on each hind limb was measured over a 3-second period. At least 3 separate measurements were made for each animal at each time point. The results were expressed as the percentage of the weight placed on the operated limb versus the contralateral unoperated limb.
The function of the limbs was also assessed at 4 weeks post-surgery by hotplate analysis to show sensitivity and reaction to pain stimulus. In brief, a mouse was placed on a hotplate at 55° C. When placed on the hot surface of the plate, mice will lift their paws and lick them (paw-lick response) due to attainment of pain threshold. The latency period for the hind limb response (paw-lick response) is recorded as response time.
Histopathology of osteoarthritis induced by ACL surgery illustrated that the proteoglycan layer was destroyed.

[2] = system: 3MR or INK-ATTAC mice exposed to cigarette smoke; assay: Cigarette smoke exposure model (COPD), oxygen saturation; type: in vivo, mouse; conditions: after 2 months of cigarette smoke exposure
Method: Six week-old 3MR (n=35) or INK-ATTAC (n=35) mice were chronically exposed to cigarette smoke generated from a Teague TE-10 system, an automatically-controlled cigarette smoking machine that produces a combination of side-stream and mainstream cigarette smoke in a chamber, which is transported to a collecting and mixing chamber where varying amounts of air is mixed with the smoke mixture. […] Mice received a total of 6 hours of cigarette smoke exposure per day, 5 days a week for 6 months. Each lighted cigarette (3R4F research cigarettes containing 10.9 mg of total particulate matter (TPM), 9.4 mg of tar, and 0.726 mg of nicotine, and 11.9 mg carbon monoxide per cigarette [University of Kentucky, Lexington, Ky.]) was puffed for 2 seconds and once every minute for a total of 8 puffs, with the flow rate of 1.05 L/min, to provide a standard puff of 35 cm^3. The smoke machine was adjusted to produce a mixture of side stream smoke (89%) and mainstream smoke (11%) by smoldering 2 cigarettes at one time. The smoke chamber atmosphere was monitored for total suspended particulates (80-120 mg/m^3) and carbon monoxide (350 ppm). Beginning at day 7, (10) INK-ATTAC and (10) 3MR mice were treated with AP20187 (3×per week) or gancyclovir (5 consecutive days of treatment followed by 16 days off drug, repeated until the end of the experiment), respectively. An equal number of mice received the corresponding vehicle. The remaining 30 mice (15 INK-ATTAC and 15 3MR) were evenly split with 5 of each genetically modified strain placed into three different treatment groups. One group (n=10) received Nutlin-3A (25 mg/kg dissolved in 10% DMSO/3% Tween-20 in PBS, treated 14 days consecutively followed by 14 days off drug, repeated until the end of the experiment). One group (n=10) received ABT-263 (Navitoclax) (100 mg/kg dissolved in 15% DMSO/5% Tween-20, treated 7 days consecutively followed by 14 days off drug, repeated until the end of the experiment), and the last group (n=10) received only the vehicle used for ABT-263 (15% DMSO/5% Tween-20), following the same treatment regimen as ABT-263.
After two months of cigarette smoke exposure, lung function was assessed by monitoring oxygen saturation using the MouseSTAT PhysioSuite pulse oximeter (Kent Scientific). Animals were anesthetized with isoflurane (1.5%) and the toe clip was applied. Mice were monitored for 30 seconds and the average peripheral capillary oxygen saturation (SpO2) measurement over this duration was calculated.

SMILES | senescent cells in the joint (p16, IL-6, MMP13 mRNA) ([1]; 5.8 μg per operated knee intra-articular qod for 2 weeks, 4 weeks post-surgery) | weight bearing test (favoring the unoperated hind limb) ([1]; 4 weeks post-surgery) | hotplate paw-lick response time ([1]; 55° C., 4 weeks post-surgery) | histopathology: destruction of the proteoglycan layer [1] | type 2 collagen expression in operated joints ([1]; relative to actin, versus untreated OA surgery mice) | SpO2 levels versus untreated controls [2]
COc1ccc(C2=N[C@@H](c3ccc(Cl)cc3)[C@@H](c3ccc(Cl)cc3)N2C(=O)N2CCNC(=O)C2)c(OC(C)C)c1 [Nutlin-3a] | clears senescent cells from the joint | abrogates this effect | decreases the response time in a significant manner; also recorded: reduces response time | completely abrogated this effect | drives ab initio collagen production | statistically significant increases
Nc1nc(O)c2ncn(COC(CO)CO)c2n1 [ganciclovir] |  |  |  | same impact on pathophysiology of osteoarthritis as Nutlin-3A |  | statistically significant increases
